Series [1] concerns Candida albicans. Description: Antifungal activity against fluconazole-resistant Candida albicans 24D assessed as inhibition of fungal growth measured for 24 hrs by CLSI based microdilution analysis. The class given is functional. Background: In broth dilution the organism is exposed to a series of concentrations in liquid medium.
Series [2] concerns Candida albicans. Description: Antifungal activity against fluconazole-resistant Candida albicans 901 assessed as inhibition of fungal growth measured for 24 hrs by CLSI based microdilution analysis. In kind it is functional.
Series [3] concerns Candida albicans. Kind of series: Antifungal activity against Candida albicans SC5314 assessed as reduction in fungal growth incubated for 24 hrs by CLSI based microdilution analysis. The class given is functional.
The subject of the next series is Aspergillus fumigatus. Description: Antifungal activity against Aspergillus fumigatus CGMCC3 7795 assessed as reduction in fungal growth incubated for 48 hrs by CLSI based microdilution analysis. The class given is functional.
The next series has as its system Candida tropicalis. Kind of series: Antifungal activity against Candida tropicalis ATCC 750 assessed as reduction in fungal growth incubated for 24 hrs by CLSI based microdilution analysis. In kind it is functional.
Series [4] has as its system Candida albicans. Kind of series: Antifungal activity against fluconazole-resistant Candida albicans 102 assessed as inhibition of fungal growth measured for 24 hrs by CLSI based microdilution analysis. In kind it is functional.
Series [5] deals with Candida albicans. Description: Antifungal activity against fluconazole-resistant Candida albicans 15 assessed as inhibition of fungal growth measured for 24 hrs by CLSI based microdilution analysis. The class given is functional.
For series [6], the system named is Meyerozyma guilliermondii. Kind of series: Antifungal activity against Meyerozyma guilliermondii ATCC 6260 assessed as reduction in fungal growth incubated for 24 hrs by CLSI based microdilution analysis. In kind it is functional.
Another series deals with Candida parapsilosis. Kind of series: Antifungal activity against Candida parapsilosis ATCC 22019 assessed as reduction in fungal growth incubated for 24 hrs by CLSI based microdilution analysis. In kind it is functional. As to conditions: Lodderomyces parapsilosis.
The subject of the next series is Cryptococcus neoformans. Description: Antifungal activity against Cryptococcus neoformans CGMCC3 1563 assessed as reduction in fungal growth incubated for 72 hrs by CLSI based microdilution analysis. In kind it is functional.
The subject of another series is Nakaseomyces glabratus. Kind of series: Antifungal activity against Candida glabrata ATCC 15126 assessed as reduction in fungal growth incubated for 24 hrs by CLSI based microdilution analysis. In kind it is functional.
Series [7] concerns Candida albicans. Kind of series: Antifungal activity against fluconazole-resistant Candida albicans 112869 assessed as inhibition of fungal growth measured for 24 hrs by CLSI based microdilution analysis. In kind it is functional.
Series [8] has as its system Candida albicans. Description: Antifungal activity against fluconazole-resistant Candida albicans 13 assessed as inhibition of fungal growth measured for 24 hrs by CLSI based microdilution analysis. In kind it is functional.
A short description of series [9]: Hemolytic activity in mouse RBC assessed as hemolysis at 100 microg/ml incubated for 60 mins relative to control. The class given is toxicity, cell-based, Erythrocyte. Conditions: red blood cells (erythrocytes), at 100 µg/mL, read-out: Activity.
Another series has as its target Cytochrome P450 3A4 (Homo sapiens, UniProt P08684). Description: Inhibition of CYP3A4 in human liver microsomes using testosterone as substrate preincubated for 5 mins followed by NADPH addition and measured after 5 mins by LC-MS/MS analysis. The class given is ADME, Microsome. On the technique in general: Liver microsomes are a subcellular fraction often used to study metabolism.

In brackets after ≈: the same amount, converted by molar mass.

Sequence of Cytochrome P450 3A4 (P08684 whole entry): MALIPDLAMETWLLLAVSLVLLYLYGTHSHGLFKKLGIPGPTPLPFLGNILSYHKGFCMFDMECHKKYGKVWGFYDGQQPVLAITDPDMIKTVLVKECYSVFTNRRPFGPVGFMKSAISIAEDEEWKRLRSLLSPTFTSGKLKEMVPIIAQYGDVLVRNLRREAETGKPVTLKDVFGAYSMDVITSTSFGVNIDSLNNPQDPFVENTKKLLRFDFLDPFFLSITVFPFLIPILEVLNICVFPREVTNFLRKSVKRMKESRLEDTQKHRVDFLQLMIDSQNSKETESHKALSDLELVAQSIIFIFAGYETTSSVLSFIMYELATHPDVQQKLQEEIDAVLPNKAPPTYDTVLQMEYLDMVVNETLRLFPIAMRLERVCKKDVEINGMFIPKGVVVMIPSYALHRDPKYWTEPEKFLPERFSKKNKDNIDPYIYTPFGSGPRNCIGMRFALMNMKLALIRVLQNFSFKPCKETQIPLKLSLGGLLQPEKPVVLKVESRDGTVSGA

Usually MIC80 stands for the lowest concentration that inhibits either 80% of growth or 80% of the strains tested, depending on the study. As for `OC(CN1CCN(CCCn2ccc3cc(Cl)ccc32)CC1)(Cn1cncn1)c1ccc(F)cc1F` (stereo not drawn), the MIC80 in the series on Candida albicans [1] was found to be 0.062 µg/mL (≈ 0.12 µM); in the series on Candida albicans [2] it was 2.5 µg/mL (≈ 4.85 µM); with Candida albicans [3], 0.031 µg/mL (≈ 0.0602 µM); in the series with Aspergillus fumigatus it was 5 µg/mL (≈ 9.71 µM); in the series with Candida tropicalis it was 0.625 µg/mL (≈ 1.21 µM); in the series with Candida albicans [4] it was 0.062 µg/mL (≈ 0.12 µM). Besides, the MIC80 in the series on Candida albicans [5] worked out at 2.5 µg/mL (≈ 4.85 µM); in series [6] it was 0.125 µg/mL (≈ 0.243 µM); in the series on Candida parapsilosis, 0.062 µg/mL (≈ 0.12 µM); in the series on Cryptococcus neoformans, 0.031 µg/mL (≈ 0.0602 µM); in the series with Nakaseomyces glabratus, 0.312 µg/mL (≈ 0.606 µM); in the series with Candida albicans [7] it was 0.062 µg/mL (≈ 0.12 µM). The MIC80 with Candida albicans [8] came out at 0.062 µg/mL (≈ 0.12 µM).

By IC50 is commonly meant the midpoint of a concentration-inhibition curve. A low value points to greater potency in that assay. On to `OC(CN1CCN(CCCn2ccc3cc(Br)ccc32)CC1)(Cn1cncn1)c1ccc(F)cc1F` (stereo not drawn), for which the MIC80 in the series on Candida albicans [1] was 0.062 µg/mL (≈ 0.111 µM); with Candida albicans [2], 1.25 µg/mL (≈ 2.23 µM); with Candida albicans [3], 0.031 µg/mL (≈ 0.0554 µM); with Aspergillus fumigatus it was 0.625 µg/mL (≈ 1.12 µM); in the series on Candida tropicalis it was 0.312 µg/mL (≈ 0.558 µM); in the series on Candida albicans [4], 0.062 µg/mL (≈ 0.111 µM). In addition, the MIC80 in the series with Candida albicans [5] was determined as 1.25 µg/mL (≈ 2.23 µM); in [6], 0.015 µg/mL (≈ 0.0268 µM); with Candida parapsilosis, 0.062 µg/mL (≈ 0.111 µM); with Cryptococcus neoformans, 0.031 µg/mL (≈ 0.0554 µM); with Nakaseomyces glabratus, 0.312 µg/mL (≈ 0.558 µM); in the series with Candida albicans [7], 0.125 µg/mL (≈ 0.223 µM). Moreover, in the series on Candida albicans [8], the MIC80 was 0.031 µg/mL (≈ 0.0554 µM). Moreover, in series [9], the hemolysis at 1 h, 100 microg/ml was 5.9%. The half-inhibitory concentration (IC50) at Cytochrome P450 3A4 is 130 nM.

Consider `OC(CN1CCN(CCCn2ccc3ccccc32)CC1)(Cn1cncn1)c1ccc(F)cc1F` (stereo not drawn), for which the MIC80 was 0.125 µg/mL (≈ 0.26 µM) with Candida albicans [1]; 5 µg/mL (≈ 10.4 µM) with Candida albicans [2]; 0.062 µg/mL (≈ 0.129 µM) in the series with Candida albicans [3]; 10 µg/mL (≈ 20.8 µM) in the series with Aspergillus fumigatus; 0.625 µg/mL (≈ 1.3 µM) with Candida tropicalis; 0.062 µg/mL (≈ 0.129 µM) with Candida albicans [4]. In addition, the MIC80 was 2.5 µg/mL (≈ 5.2 µM) in the series on Candida albicans [5]; 0.125 µg/mL (≈ 0.26 µM) in series [6]; 0.125 µg/mL (≈ 0.26 µM) with Candida parapsilosis; 0.062 µg/mL (≈ 0.129 µM) in the series on Cryptococcus neoformans; 0.625 µg/mL (≈ 1.3 µM) in the series on Nakaseomyces glabratus; 0.062 µg/mL (≈ 0.129 µM) with Candida albicans [7]. Also, in the series on Candida albicans [8], the MIC80 came out at 0.062 µg/mL (≈ 0.129 µM).

In the case of `OC(CN1CCN(CCCn2ccc3ccc(Cl)cc32)CC1)(Cn1cncn1)c1ccc(F)cc1F` (stereo not drawn), the MIC80 turned out to be 0.062 µg/mL (≈ 0.12 µM) in the series on Candida albicans [1]; 5 µg/mL (≈ 9.71 µM) in the series on Candida albicans [2]; 0.062 µg/mL (≈ 0.12 µM) in the series with Candida albicans [3]; 5 µg/mL (≈ 9.71 µM) with Aspergillus fumigatus; 0.625 µg/mL (≈ 1.21 µM) with Candida tropicalis; 0.062 µg/mL (≈ 0.12 µM) with Candida albicans [4]. In addition, the MIC80 with Candida albicans [5] came out at 2.5 µg/mL (≈ 4.85 µM); in series [6], 0.125 µg/mL (≈ 0.243 µM); in the series with Candida parapsilosis, 0.125 µg/mL (≈ 0.243 µM); in the series with Cryptococcus neoformans, 0.031 µg/mL (≈ 0.0602 µM); in the series with Nakaseomyces glabratus, 0.312 µg/mL (≈ 0.606 µM); in the series on Candida albicans [7], 0.25 µg/mL (≈ 0.485 µM). The MIC80 in the series on Candida albicans [8] is 0.062 µg/mL (≈ 0.12 µM).

As to `COc1ccc2c(ccn2CCCN2CCN(CC(O)(Cn3cncn3)c3ccc(F)cc3F)CC2)c1` (stereo not drawn), the MIC80 in the series on Candida albicans [1] was 0.125 µg/mL (≈ 0.245 µM); with Candida albicans [2], 5 µg/mL (≈ 9.79 µM); with Candida albicans [3] it was 0.062 µg/mL (≈ 0.121 µM); with Aspergillus fumigatus, 5 µg/mL (≈ 9.79 µM); with Candida tropicalis it was 0.625 µg/mL (≈ 1.22 µM); in the series with Candida albicans [4], 0.062 µg/mL (≈ 0.121 µM). Also, the MIC80 is 0.625 µg/mL (≈ 1.22 µM) with Candida albicans [5]; 0.125 µg/mL (≈ 0.245 µM) in series [6]; 0.062 µg/mL (≈ 0.121 µM) in the series on Candida parapsilosis; 0.125 µg/mL (≈ 0.245 µM) in the series with Cryptococcus neoformans; 0.312 µg/mL (≈ 0.611 µM) in the series with Nakaseomyces glabratus; 0.25 µg/mL (≈ 0.49 µM) in the series with Candida albicans [7]. The MIC80 in the series with Candida albicans [8] came out at 0.062 µg/mL (≈ 0.121 µM).

In the case of `OC(CN1CCN(CCCn2ccc3ccc(Br)cc32)CC1)(Cn1cncn1)c1ccc(F)cc1F` (stereo not drawn), the MIC80 in the series on Candida albicans [1] stood at 0.125 µg/mL (≈ 0.223 µM); in the series with Candida albicans [2] it was 2.5 µg/mL (≈ 4.47 µM); with Candida albicans [3] it was 0.062 µg/mL (≈ 0.111 µM); in the series on Aspergillus fumigatus, 1.25 µg/mL (≈ 2.23 µM); with Candida tropicalis, 0.312 µg/mL (≈ 0.558 µM); with Candida albicans [4] it was 0.125 µg/mL (≈ 0.223 µM). Further, the MIC80 worked out at 2.5 µg/mL (≈ 4.47 µM) in the series with Candida albicans [5]; 0.031 µg/mL (≈ 0.0554 µM) in [6]; 0.062 µg/mL (≈ 0.111 µM) in the series on Candida parapsilosis; 0.031 µg/mL (≈ 0.0554 µM) in the series on Cryptococcus neoformans; 0.312 µg/mL (≈ 0.558 µM) in the series on Nakaseomyces glabratus; 0.5 µg/mL (≈ 0.894 µM) in the series with Candida albicans [7]. The MIC80 in the series with Candida albicans [8] stood at 0.031 µg/mL (≈ 0.0554 µM).

Consider `O=[N+]([O-])c1ccc2c(ccn2CCN2CCN(CC(O)(Cn3cncn3)c3ccc(F)cc3F)CC2)c1` (stereo not drawn), for which the MIC80 in the series on Candida albicans [1] was 0.031 µg/mL (≈ 0.0606 µM); in the series with Candida albicans [2], 1.25 µg/mL (≈ 2.44 µM); in the series with Candida albicans [3], 0.031 µg/mL (≈ 0.0606 µM); with Aspergillus fumigatus, 1.25 µg/mL (≈ 2.44 µM); in the series with Candida tropicalis, 0.312 µg/mL (≈ 0.61 µM); in the series on Candida albicans [4] it was 0.031 µg/mL (≈ 0.0606 µM). Further, the MIC80 was 1.25 µg/mL (≈ 2.44 µM) in the series on Candida albicans [5]; 0.062 µg/mL (≈ 0.121 µM) in series [6]; 0.062 µg/mL (≈ 0.121 µM) in the series on Candida parapsilosis; 0.031 µg/mL (≈ 0.0606 µM) in the series with Cryptococcus neoformans; 0.312 µg/mL (≈ 0.61 µM) in the series with Nakaseomyces glabratus; 0.062 µg/mL (≈ 0.121 µM) in the series with Candida albicans [7]. Further, the MIC80 in the series on Candida albicans [8] is 0.062 µg/mL (≈ 0.121 µM).

For the origin of these results see ChEMBL document CHEMBL5338795, “Novel Triazoles with Potent and Broad-Spectrum Antifungal Activity In Vitro and In Vivo” (J Med Chem, 2023).
